Patent publication US9320734B2, “Small molecule inhibitors of the pleckstrin homology domain and methods for using same” (Board of Regents, The University of Texas System, priority 2008, dated 2016)
In brackets after ≈: the same amount, converted by molar mass. Read-outs that look alike come from different tables or passages of the source. Each block holds one compound with its values, some of them ahead of it.

Assays:
[1] = test system: phospho-Ser473 AKT in NIH3T3 cells; experiment: Cellular AKT inhibition, phospho-Ser473 AKT, NIH3T3 cells; format: cell-based; conditions: mouse NIH3T3, phospho-Ser473 AKT
Procedure: (§1) AKT activity was measured by Western blotting using anti-[…] AKT antibody. Downstream targets of AKT were detected also by Western blotting using specific anti-phospho antibodies and anti-actin was used as a loading control.

HT-29 cells [2] = experiment: Metabolic stability under cell culture conditions (incubation with HT-29 cells); format: in vitro ADME, human; conditions: incubating with HT-29 cells at maximum DMEM concentration at 37° C.
Source text: Compound 6 was too insoluble to obtain data.

Solubility = format: physicochemical
[3] = test system: phospho-Ser473-AKT in HT-29 cells; experiment: Cellular AKT inhibition, Western blot phospho-Ser473-AKT, HT-29 cells; format: cell-based; conditions: human HT-29 colon cancer cells
Procedure: AKT inhibition leads to cellular apoptosis.
as §1

HT-29 cells [4] = experiment: Cell survival / cytotoxicity, MTT assay, HT-29 cells; format: cell-based, human
[5] = test system: phospho-Ser473-AKT in BxPC-3; experiment: Cellular AKT inhibition, Western blot phospho-Ser473-AKT, BxPC-3 cells; format: cell-based, human; conditions: for inhibition at 10 µM: Homo sapiens
[6] = test system: phospho-Ser473-AKT in MiaPaCa-2 cells; experiment: Cellular AKT inhibition, Western blot phospho-Ser473-AKT, MiaPaCa-2 cells; conditions: read-out: pAKT inhibition (IC50); Western blotting, phospho-Ser473-AKT, MiaPaCa-2 cells; N/I = no inhibition at the highest concentration tested
[7] = test system: Panc-1 and MiaPaCa-2 pancreatic cancer cells; experiment: Cell viability assay (Table 3); conditions: for Cell viability (IC50): viability assay, cell line not given, N/I = no inhibition at the highest concentration tested; for cytotoxicity: either cell line tested (Panc-1, MiaPaCa-2)
[8] = BxPC-3, Western blots phospho-Ser473-AKT, 10 μM, NI = not inhibitory, read-out: % pAKT Inhibition, At 10 μM
[9] = BXPC-3, read-out: % pAKT Inhibition, At 10 μM
[10] = MTT assay, read-out: Cell survival (IC50)

- Metabolic half life (HT-29 cells [2]): 1.03 h
- Solubility (Solubility): 28.3 µM (≈ 13.1 µg/mL)
- IC50 [3]: 20 µM
Structure (SMILES): CC1=NN(C(=O)c2ccccc2)C(=O)C1/N=N/c1ccc(S(=O)(=O)Nc2ncccn2)cc1 (stereo not shown) [Compound 331]
- IC50 [1]: 11 µM
- IC50 (HT-29 cells [4]; HT-29 cells, NI = not inhibitory, read-out: Cytotoxicity (IC50 μM)): 14 µM

Structure (SMILES): CCCCCCCCCC(=O)Nc1ccc(S(=O)(=O)Nc2nnc(C(C)(C)C)s2)cc1 [Compound 115, N-(4-(N-(5-tert-Butyl-1,3,4-thiadiazol-2-yl)sulfamoyl)phenyl)decanamide]
- inhibition at 10 µM [5, 8]: 16%

Structure (SMILES): CCc1nnc(NS(=O)(=O)c2ccc(NC(C)=O)cc2)s1 [Compound 110, N-(4-(N-(5-Ethyl-1,3,4-thiadizol-2-yl)sulfamoyl)phenyl)acetamide]
- % pAKT Inhibition, At 10 μM ([5]; BxPC-3, Western blots phospho-Ser473-AKT, 10 μM, NI = not inhibitory): 45%

Structure (SMILES): CCc1nnc(NS(=O)(=O)c2ccc(N)cc2)s1 [Compound 109, 4-Amino-N-(5-ethyl-1,3,4-thiadiazol-2-yl)benzenesulfonamide]
- inhibition at 10 µM [5, 8]: 16%

Structure (SMILES): CC(C)(C)c1nnc(NS(=O)(=O)c2ccc(N)cc2)s1 [Compound 113, 4-Amino-N-(5-tert-butyl-1,3,4-thiadiazol-2-yl)benzenesulfonamide]
- inhibition at 10 µM [5, 8]: 13%

Structure (SMILES): Cc1nnc(NS(=O)(=O)c2ccc(N)cc2)s1 [Compound 105, 4-Amino-N-(5-methyl-1,3,4-thiadiazol-2-yl)benzenesulfonamide]
- inhibition at 10 µM [5, 9]: 11%

Structure (SMILES): CC(=O)Nc1ccc(S(=O)(=O)Nc2nnc(CC(=O)O)s2)cc1 [Compound 118, 2-(5-(4-Acetamidophenylsulfonamido)-1,3,4-thiadiazol-2-yl)acetic Acid]
- inhibition at 10 µM [5, 8]: 19%

Structure (SMILES): CCCCCCCCCCCCCCc1ccc(S(=O)(=O)Nc2nncs2)cc1 [Compound 156, 4-Tetradecyl-N-(1,3,4-thiadiazol-2-yl)benzenesulfonamide]
- inhibition at 10 µM [5, 8]: 70%

Structure (SMILES): Nc1ccc(S(=O)(=O)Nc2nnc(CO)s2)cc1 [Compound 125, 4-Amino-N-(5-(hydroxymethyl)-1,3,4-thiadiazol-2-yl)benzenesulfonamide]
- inhibition at 10 µM [5, 8]: 10%

Structure (SMILES): CCOC(=O)Cc1nnc(NS(=O)(=O)c2ccc(NC(C)=O)cc2)s1 [Compound 118E, Ethyl 2-(5-(4-Acetamidophenylsulfonamido)-1,3,4-thiadiazol-2-yl)acetate]
- inhibition at 10 µM [5, 8]: 55%

Structure (SMILES): CCCCCCCCCCCCc1ccc(S(=O)(=O)Nc2nnc(C(C)(C)C)s2)cc1 [Compound 116, N-(5-tert-Butyl-1,3,4-thiadiazol-2-yl)-4-dodecylbenzenesulfonamide]
- inhibition at 10 µM [5, 8]: 36%

Structure (SMILES): CC(=O)Nc1ccc(S(=O)(=O)Nc2nnc(C(C)(C)C)s2)cc1 [Compound 114, N-(4-(N-(5-tert-Butyl-1,3,4-thiadiazol-2-yl)sulfamoyl)phenyl)acetamide]
- inhibition at 10 µM [5, 8]: 20%

Structure (SMILES): CCCCCCCCCC(=O)Nc1ccc(S(=O)(=O)Nc2nnc(C)s2)cc1 [Compound 107, N-(4-(N-(5-Methyl-1,3,4-thiadiazol-2-yl)sulfamoyl)phenyl)decanamide]
- inhibition at 10 µM [5, 8]: 11%

- IC50 [6]: 50 µM
- Cell viability (IC50) [7]: N/I
Structure (SMILES): COc1cc(NS(=O)(=O)c2ccc(Nc3ccco3)cc2)nc(OC)n1 [Compound 444]

Structure (SMILES): CCCCCCCCc1ccc(S(=O)(=O)Nc2nncs2)cc1 [Compound 153, 4-Octyl-N-(1,3,4-thiadiazol-2-yl)benzenesulfonamide]
- inhibition at 10 µM [5, 8]: 10%

Structure (SMILES): CCCCCCCCCCCCc1ccc(S(=O)(=O)Nc2nnc(C)s2)cc1 [Compound 108, 4-Dodecyl-N-(5-methyl-1,3,4-thiadiazol-2-yl)benzenesulfonamide]
- inhibition at 10 µM [5, 8]: 64%

- Cell viability (IC50) [7]: N/I
Structure (SMILES): Nc1ccc(S(=O)(=O)Nc2nncs2)cc1 [Compound 100, 4-Amino-N-(1,3,4-thiadiazol-2-yl)benzenesulfonamide]
- cytotoxicity [7]: did not exhibit cytotoxicity

- Cell viability (IC50) [7]: N/I
Structure (SMILES): Cc1nnc(NS(=O)(=O)c2ccc(NS(=O)(=O)c3ccc4ccccc4c3)cc2)s1 [Compound 455]
- cytotoxicity [7]: did not exhibit cytotoxicity

Structure (SMILES): CCCCCCCCCCCCc1ccc(S(=O)(=O)Nc2nnc(CCCCCN(C)c3ccc([N+](=O)[O-])c4nonc34)s2)cc1 [Compound 137, 4-Dodecyl-N-(5-(5-(methyl(7-nitrobenzo[c][1,2,5]oxadiazol-4-yl)amino)pentyl)-1,3,4-thiadiazol-2-yl)benzenesulfonamide]
- AKT phosphorylation ([5]; BxPC-3 cells, compared with 104): inhibited AKT phosphorylation in a fashion similar to 104

Structure (SMILES): CCCCCCCCCCCCCCCCc1ccc(S(=O)(=O)Nc2nncs2)cc1 [Compound 157, 4-Hexadecyl-N-(1,3,4-thiadiazol-2-yl)benzenesulfonamide]
- inhibition at 10 µM [5, 8]: 50%

- IC50 [6]: 50 µM
- Cell viability (IC50) [7]: N/I
Structure (SMILES): Nc1ccc(S(=O)(=O)Nc2ccc(S(=O)(=O)Nc3nnc(S(N)(=O)=O)s3)cc2)cc1 [Compound 456]

Structure (SMILES): COc1cc(NS(=O)(=O)c2ccc(NS(=O)(=O)c3c(C)noc3C)cc2)nc(OC)n1 [Compound 415]
- IC50 (HT-29 cells [4]; [10]): 3.1 µM

Structure (SMILES): CC1=NN(C(=O)c2ccc(Cl)cc2)C(O)C1/N=N/c1ccc(S(=O)(=O)Nc2ncccn2)cc1 (stereo not shown) [Compound 335]
- IC50 [1]: 3 µM
- Solubility (Solubility): <0.1 µM
- IC50 [3]: 5 µM

- IC50 [6]: 25 µM
- Cell viability (IC50) [7]: N/I
Structure (SMILES): CCOc1ccccc1C(=O)Nc1ccccc1C(=O)O [Compound 441]

Structure (SMILES): NS(=O)(=O)c1nnc(NS(=O)(=O)c2cccc3cccnc23)s1 [Compound 345]
- IC50 (HT-29 cells [4]; [10]): > 100 µM

Structure (SMILES): CC1=NN(C(=O)c2ccc(Cl)cc2)C(=O)C1/N=N/c1ccc(S(=O)(=O)Nc2nnc(C)s2)cc1 (stereo not shown) [Compound 389]
- IC50 (HT-29 cells [4]; [10]): > 100 µM

- IC50 [6]: 50 µM
- Cell viability (IC50) [7]: N/I
Structure (SMILES): COc1cc(NS(=O)(=O)c2ccc(NC(C)=O)cc2)nc(OC)n1 [Compound 450]

Structure (SMILES): CCCCCCCCCC(=O)Nc1ccc(S(=O)(=O)Nc2nnc(CO)s2)cc1 [Compound 127, N-(4-(N-(5-(hydroxymethyl)-1,3,4-thiadiazol-2-yl)sulfamoyl)phenyl)decanamide]
- inhibition at 10 µM [5, 8]: 11%

- IC50 [6]: 50 µM
- Cell viability (IC50) [7]: N/I
Structure (SMILES): COc1cc(NS(=O)(=O)c2ccc(NC(=O)c3ccco3)cc2)nc(OC)n1 [Compound 445]

Structure (SMILES): Nc1ccc(S(=O)(=O)Nc2nnc(S(N)(=O)=O)s2)cc1 [Compound 131, 5-(4-Aminophenylsulfonamido)-1,3,4-thiadiazole-2-sulfonamide]
- inhibition at 10 µM [5, 9]: 18%

Structure (SMILES): CCCCCCCCCC(=O)Nc1ccc(S(=O)(=O)Nc2nnc(CC(=O)O)s2)cc1 [Compound 119, 2-(5-(4-Decanamidophenylsulfonamido)-1,3,4-thiadiazol-2-yl)acetic Acid]
- inhibition at 10 µM [5, 8]: 42%

Structure (SMILES): CCCCCCCCCC(=O)Nc1ccc(S(=O)(=O)Nc2nnc(C(=O)OCC)s2)cc1 [Compound 123E, Ethyl 5-(4-Decanamidophenylsulfonamido)-1,3,4-thiadiazole-2-carboxylate]
- inhibition at 10 µM [5, 8]: 10%

Structure (SMILES): Nc1ccc(S(=O)(=O)Nc2nnc(CC(=O)O)s2)cc1 [Compound 117, 2-(5-(4-Aminophenylsulfonamido)-1,3,4-thiadiazol-2-yl)acetic Acid]
- inhibition at 10 µM [5, 8]: 23%

Structure (SMILES): CCCCCCCCCC(=O)Nc1ccc(S(=O)(=O)Nc2nnc(CC)s2)cc1 [Compound 111, N-(4-(N-(5-Ethyl-1,3,4-thiadiazol-2-yl)sulfamoyl)phenyl)decanamide]
- inhibition at 10 µM [5, 8]: 22%

- IC50 [6]: 50 µM
- Cell viability (IC50) [7]: N/I
Structure (SMILES): O=C(Nc1ccccc1)c1ccccc1NC(=O)c1ccccc1C(=O)O [Compound 439]
